Patent US20160123960A1, “METHOD FOR PREPARING THREE-DIMENSIONAL, ORGANOTYPIC CELL CULTURES AND USES THEREOF” (priority 2013, published 2016)

What was measured:
T47D μOTOCs = assay: 18F-FDG uptake in μOTOCs by Cerenkov Luminescence Imaging, T47D; type: cell-based; conditions: 250 μM, 24 hrs, CLI
Description: (§1) Cobalt chloride (CoCl2) is known to cause an increase in 18F-FDG uptake in cells treated /over 24 hours. As such, 250 μM CoCl2 was used to test whether μTOCs could be imaged.
(§2) μOTOCs of H1048 (small cell lung carcinoma) and T47D (mammary gland; ductal carcinoma) cells were generated using the method described in Example 1.
(§3) On Day 3 post seeding/creation of the OTOCs (i.e, after forming the μOTOCs in oil then transferring to T75 flask for 3 days of culture), the μOTOCs were transferred one at a time via pipette into a 96 well plate (1 μOTOC/well). 250 μM CoCl2 was added to each well. Cerenkov Luminescence Imaging was used to monitor the FDG response in vitro.

H1048 μOTOCs = assay: 18F-FDG uptake in μOTOCs by Cerenkov Luminescence Imaging, H1048; type: cell-based; conditions: 250 μM, 24 hrs, CLI
Description: as §1, §2, §3

HCT-116 OTOCs = assay: 18F-FDG uptake in OTOCs by Cerenkov Luminescence Imaging, HCT-116; type: cell-based; conditions: 700 ng/ml, 24 hr time point, CLI
From the text: (§4) The objective of this study was to monitor radio-labeled compound uptake in vitro using the OTOC system described herein. Three tumor cell lines (HT-29 (colon tumor cell line), HCT-116 (colon tumor cell line), and H460 (lung tumor cell line) were used to generate OTOCs in order to test the effects of FDG uptake after drug treatment with MLN9708, a proteasome inhibitor. OTOCs for each cell line were transferred to 6 well plates, respectively, with 6 OTOCs/well.
(§5) An in vitro dosage of MLN9708 was extrapolated from historical in vivo PK studies for this compound. A 700 ng/ml concentration was decided upon and used in the OTOC studies described herein (derived from the mean tumor concentration achievable with a standard dose of MLN9708 (11 mg/kg PK dose, IV)).
(§6) The imaging modality Cerenkov Luminescence Imaging (CLI, Robertson et al. (2009) Phys. Med. Biol. 54:N355-N365) was used to monitor the FDG response in vitro.
(§7) The cell line HT-29 (KRAS WT) is known to be responsive to MLN9708 in vivo (t/c <0.3), while HCT-116 and H460 (both KRAS mutants) have shown resistance to proteasome inhibition (data not shown). OTOCs were imaged via CLI at 24, 48, 72, 96 hours post compound administration.

HT-29 OTOCs = assay: 18F-FDG uptake in OTOCs by Cerenkov Luminescence Imaging, HT-29; type: cell-based; conditions: 700 ng/ml, 24 hr time point, CLI
From the text: as §4, §5, §6, §7

H460 OTOCs = assay: 18F-FDG uptake in OTOCs by Cerenkov Luminescence Imaging, H460; type: cell-based; conditions: 700 ng/ml, 24 hr time point, CLI
From the text: as §4, §5, §6, §7

HT-29 (KRAS WT) = assay: In vivo response of HT-29 (t/c); conditions: HT-29 in vivo
[1] = system: HCT-116 (HCT-116-Luc) OTOCs; conditions: repeated experiment, newly generated HCT-116 OTOCs and InSphero spheroids
Description: 24 OTOCs were removed and placed in a 6-well plate, 4 OTOCs/well on day 3 post OTOC seeding/creation.
At 4 days post drug administration all OTOC's were collected for viability measurement to look at growth kinetics and drug resistance to STP.
Each OTOC was placed in a glass test tube with several glass beads. Approximately 800 of PBS was added to test tube and the tube was vortexed for 2-3 min to disrupt the OTOC. After vortexing each test tube was placed on ice until sampling. A black 96 well plate was used for the samples. For each lane 100 μl of the OTOC solution was placed in each well (8 wells/800 (total)/OTOC) until all OTOCs samples were completed. 100 μl of Celltiter glow was added to each well and the plates were rested for 10 min before reading. IVIS Spectrum was run on Auto exposure for each plate and the Living Image analysis program was used to determine Radiance/per well. Lanes were added up and group average and error was determined.
The same conditions that were use in the previous InSphero experiment (in regards to dose and timing) were used in this experiment.

HCT-116 spheroids = assay: InSphero assay (hanging drop spheroids), HCT-116; conditions: Homo sapiens
From the text: This experiment that was undertaken was to determine if there was an increase in the resistance of known drug in comparison of the spheroid culture to OTOC format. The same conditions that were use in the previous InSphero experiment (in regards to dose and timing) were used in this experiment.

Question: Which results are given for `[Cl][Co][Cl]` [CoCl2, Cobalt chloride]?
Answer: increase in FDG uptake (T47D μOTOCs): 33.7%; increase in 18F-FDG uptake (H1048 μOTOCs): 22.6%

Question: `CC(C)C[C@H](NC(=O)CNC(=O)c1cc(Cl)ccc1Cl)B1OC(=O)C(CC(=O)O)(CC(=O)O)O1` [MLN9708] was tested. Which FDG uptake response (HCT-116 OTOCs) did it give?
Answer: < 10%

Question: What about the “increased FDG uptake” value (HT-29 OTOCs) of the same molecule?
Answer: 48%

Question: And the “FDG signal change from control” value (H460 OTOCs)?
Answer: -10%

Question: What about the t/c (HT-29 (KRAS WT)) of the same molecule?
Answer: < 0.3

Question: How did the “greater resistance in OTOCs assay as compared to InSphero assay” value [1] turn out when `CN[C@@H]1C[C@H]2O[C@@](C)([C@@H]1OC)n1c3ccccc3c3c4c(c5c6ccccc6n2c5c31)C(=O)NC4` [Staurosporine] was run?
Answer: 1800 ×

Question: And the IC50 (HCT-116 spheroids)?
Answer: 37 nM
